Data reported in patent US20080274892A1, “Novel Haloalkylsulfonanilide Derivative, Herbicide, and Method of Use Thereof” (priority 2005, published 2008).

How the values were obtained:
barnyard glass = assay: Test Example 2: herbicidal efficacy on rice paddy weeds post-emergence; assay type: in vivo, Echinochloa crus-galli; conditions: post-emergence, one leaf stage, 21 days after treatment
Summary of the method: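 Efficacy on paddy weeds was scored on a 0 to 4 growth-inhibition scale: 4 for 90%-100%, 3 for 70%-89%, 2 for 40%-69%, 1 for 1%-39% and 0 for 0%. Barnyard glass was grown in clay loam in 75 cm^2 pots under 5 cm of water in a hot house. It was compared with untreated pots 21 days after treatment.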

bulrush [1] = assay: as above; assay type: in vivo, Scirpus juncoides; conditions: post-emergence, one leaf stage, 21 days after treatment
false pimpernel [2] = assay: as above; assay type: in vivo, Lindernia pyxidaria; conditions: post-emergence, one leaf stage, 21 days after treatment
[3] = system: paddy rice plant (cultivar: Nihonbare); assay: Test Example 3: phytotoxicity test for transplanted paddy rice plant; assay type: in vivo; conditions: transplanted rice, 21 days after treatment
Summary of the method: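 Clay loam soil was placed in a 75 cm^2 plastic pot and flooded to a water depth of 5 cm. Two Nihonbare paddy rice plants at the two-leaf stage were transplanted 1 cm deep and grown in a hot house. After treatment, pots stayed in the hot house for 21 days, and phytotoxicity was then graded against an untreated control.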

bulrush [4] = assay: Test Example 1: herbicidal efficacy on rice paddy weeds pre-emergence; assay type: in vivo, Scirpus juncoides; conditions: 21 days
false pimpernel [5] = assay: as above; assay type: in vivo, Lindernia pyxidaria; conditions: 21 days
[6] = dosage 1000 g/ha, treated 5 days after transplantation

Row | SMILES | Burnyard grass post (herbicidal efficacy grade) (barnyard glass; dosage 1000 g/ha) | Bulrush post (herbicidal efficacy grade) (bulrush [1]; dosage 1000 g/ha) | False pimpernel post (herbicidal efficacy grade) (false pimpernel [2]; dosage 1000 g/ha) | Phytotoxicity to paddy rice [3, 6] | Bulrush pre (herbicidal efficacy grade) (bulrush [4]; dosage 1000 g/ha) | False pimpernel pre (herbicidal efficacy grade) (false pimpernel [5]; dosage 1000 g/ha) | Burnyard grass post (herbicidal efficacy grade) (barnyard glass; dosage 300 g/ha) | Bulrush post (herbicidal efficacy grade) (bulrush [1]; dosage 300 g/ha) | False pimpernel post (herbicidal efficacy grade) (false pimpernel [2]; dosage 300 g/ha) | Phytotoxicity to paddy rice ([3]; dosage 300 g/ha) | Bulrush pre (herbicidal efficacy grade) (bulrush [4]; dosage 300 g/ha) | False pimpernel pre (herbicidal efficacy grade) (false pimpernel [5]; dosage 300 g/ha) | also measured
1 | CC1N(Cc2ccccc2NS(=O)(=O)C(F)(F)F)C(=O)OC1(C)C (stereo not drawn) [Compound 1-96] | 4 (90%-100% of herbicidal efficacy or phytotoxicity) | 4 (90%-100% of herbicidal efficacy or phytotoxicity) | 4 (90%-100% of herbicidal efficacy or phytotoxicity) | 3 (70%-89% of herbicidal efficacy or phytotoxicity) | 4 (90%-100% of herbicidal efficacy or phytotoxicity) | 4 (90%-100% of herbicidal efficacy or phytotoxicity) |  |  |  |  |  |  | 
2 | CCCCC1(C)CN(Cc2ccccc2N(C(=O)OC)S(=O)(=O)C(F)(F)F)C(=O)O1 (stereo not drawn) [Compound 1-128] |  |  |  |  |  |  |  |  |  |  |  |  | Burnyard grass post (herbicidal efficacy grade) (barnyard glass; dosage 100 g/ha): 3 (70%-89% of herbicidal efficacy or phytotoxicity); Bulrush post (herbicidal efficacy grade) (bulrush [1]; dosage 100 g/ha): 3 (70%-89% of herbicidal efficacy or phytotoxicity); False pimpernel post (herbicidal efficacy grade) (false pimpernel [2]; dosage 100 g/ha): 2 (40%-69% of herbicidal efficacy or phytotoxicity); Phytotoxicity to paddy rice ([3]; dosage 100 g/ha as printed in the table line): 1 (1%-39% of herbicidal efficacy or phytotoxicity); Bulrush pre (herbicidal efficacy grade) (bulrush [4]; dosage 100 g/ha): 2 (40%-69% of herbicidal efficacy or phytotoxicity); False pimpernel pre (herbicidal efficacy grade) (false pimpernel [5]; dosage 100 g/ha): 4 (90%-100% of herbicidal efficacy or phytotoxicity)
3 | COCC1(C)CN(Cc2ccccc2NS(=O)(=O)C(F)(F)F)C(=O)O1 (stereo not drawn) [Compound 1-137] |  |  |  |  |  |  | 4 (90%-100% of herbicidal efficacy or phytotoxicity) | 4 (90%-100% of herbicidal efficacy or phytotoxicity) | 4 (90%-100% of herbicidal efficacy or phytotoxicity) | 2 (40%-69% of herbicidal efficacy or phytotoxicity) | 4 (90%-100% of herbicidal efficacy or phytotoxicity) | 4 (90%-100% of herbicidal efficacy or phytotoxicity) | 
4 | COCC1(C)CN(Cc2ccccc2N(C(=O)OCC(C)C)S(=O)(=O)C(F)(F)F)C(=O)O1 (stereo not drawn) [Compound 1-138] | 4 (90%-100% of herbicidal efficacy or phytotoxicity) | 4 (90%-100% of herbicidal efficacy or phytotoxicity) | 4 (90%-100% of herbicidal efficacy or phytotoxicity) | 2 (40%-69% of herbicidal efficacy or phytotoxicity) | 4 (90%-100% of herbicidal efficacy or phytotoxicity) | 4 (90%-100% of herbicidal efficacy or phytotoxicity) |  |  |  |  |  |  | 
5 | Cc1c(Cl)ccc(OC(C)C(=O)N(c2ccccc2CN2CC(C)(C)OC2=O)S(=O)(=O)C(F)(F)F)c1Cl (stereo not drawn) [Compound 1-139] |  |  |  |  |  |  | 3 (70%-89% of herbicidal efficacy or phytotoxicity) | 4 (90%-100% of herbicidal efficacy or phytotoxicity) | 4 (90%-100% of herbicidal efficacy or phytotoxicity) | 3 (70%-89% of herbicidal efficacy or phytotoxicity) | 4 (90%-100% of herbicidal efficacy or phytotoxicity) | 4 (90%-100% of herbicidal efficacy or phytotoxicity) | 
6 | CC1(c2ccccc2)CN(Cc2ccccc2NS(=O)(=O)C(F)(F)F)C(=O)O1 (stereo not drawn) [Compound 1-140] |  |  |  |  |  |  | 2 (40%-69% of herbicidal efficacy or phytotoxicity) | 4 (90%-100% of herbicidal efficacy or phytotoxicity) | 4 (90%-100% of herbicidal efficacy or phytotoxicity) | 1 (1%-39% of herbicidal efficacy or phytotoxicity) | 4 (90%-100% of herbicidal efficacy or phytotoxicity) | 4 (90%-100% of herbicidal efficacy or phytotoxicity) | 
7 | CC1(C2CCCCC2)CN(Cc2ccccc2NS(=O)(=O)C(F)(F)F)C(=O)O1 (stereo not drawn) [Compound 1-154] |  |  |  |  |  |  | 1 (1%-39% of herbicidal efficacy or phytotoxicity) | 4 (90%-100% of herbicidal efficacy or phytotoxicity) | 4 (90%-100% of herbicidal efficacy or phytotoxicity) | 1 (1%-39% of herbicidal efficacy or phytotoxicity) | 4 (90%-100% of herbicidal efficacy or phytotoxicity) | 4 (90%-100% of herbicidal efficacy or phytotoxicity) | 
8 | CC1(COc2ccccc2)CN(Cc2ccccc2NS(=O)(=O)C(F)(F)F)C(=O)O1 (stereo not drawn) [Compound 1-155] |  |  |  |  |  |  | 1 (1%-39% of herbicidal efficacy or phytotoxicity) | 4 (90%-100% of herbicidal efficacy or phytotoxicity) | 4 (90%-100% of herbicidal efficacy or phytotoxicity) | 1 (1%-39% of herbicidal efficacy or phytotoxicity) | 4 (90%-100% of herbicidal efficacy or phytotoxicity) | 4 (90%-100% of herbicidal efficacy or phytotoxicity) | 
9 | CC(C)COC(=O)N(c1ccccc1CN1CC(C)(COc2ccccc2)OC1=O)S(=O)(=O)C(F)(F)F (stereo not drawn) [Compound 1-158] | 4 (90%-100% of herbicidal efficacy or phytotoxicity) | 4 (90%-100% of herbicidal efficacy or phytotoxicity) | 4 (90%-100% of herbicidal efficacy or phytotoxicity) | 1 (1%-39% of herbicidal efficacy or phytotoxicity) | 4 (90%-100% of herbicidal efficacy or phytotoxicity) | 4 (90%-100% of herbicidal efficacy or phytotoxicity) |  |  |  |  |  |  | 
10 | COC(=O)N(c1ccccc1CN1CC(C)(COc2ccccc2)OC1=O)S(=O)(=O)C(F)(F)F (stereo not drawn) [Compound 1-159] | 4 (90%-100% of herbicidal efficacy or phytotoxicity) | 4 (90%-100% of herbicidal efficacy or phytotoxicity) | 4 (90%-100% of herbicidal efficacy or phytotoxicity) | 1 (1%-39% of herbicidal efficacy or phytotoxicity) | 4 (90%-100% of herbicidal efficacy or phytotoxicity) | 4 (90%-100% of herbicidal efficacy or phytotoxicity) |  |  |  |  |  |  | 
11 | CC1CCCC12CN(Cc1ccccc1NS(=O)(=O)C(F)(F)F)C(=O)O2 (stereo not drawn) [Compound 1-160] |  |  |  |  |  |  | 4 (90%-100% of herbicidal efficacy or phytotoxicity) | 4 (90%-100% of herbicidal efficacy or phytotoxicity) | 4 (90%-100% of herbicidal efficacy or phytotoxicity) | 1 (1%-39% of herbicidal efficacy or phytotoxicity) | 4 (90%-100% of herbicidal efficacy or phytotoxicity) | 4 (90%-100% of herbicidal efficacy or phytotoxicity) | 
12 | CC(C)COC(=O)N(c1ccccc1CN1CC2(CCCC2C)OC1=O)S(=O)(=O)C(F)(F)F (stereo not drawn) [Compound 1-161] | 4 (90%-100% of herbicidal efficacy or phytotoxicity) | 4 (90%-100% of herbicidal efficacy or phytotoxicity) | 4 (90%-100% of herbicidal efficacy or phytotoxicity) | 1 (1%-39% of herbicidal efficacy or phytotoxicity) | 4 (90%-100% of herbicidal efficacy or phytotoxicity) | 4 (90%-100% of herbicidal efficacy or phytotoxicity) |  |  |  |  |  |  | 
13 | COC(=O)N(c1ccccc1CN1CC2(CCCC2C)OC1=O)S(=O)(=O)C(F)(F)F (stereo not drawn) [Compound 1-162] | 4 (90%-100% of herbicidal efficacy or phytotoxicity) | 4 (90%-100% of herbicidal efficacy or phytotoxicity) | 4 (90%-100% of herbicidal efficacy or phytotoxicity) | 1 (1%-39% of herbicidal efficacy or phytotoxicity) | 4 (90%-100% of herbicidal efficacy or phytotoxicity) | 4 (90%-100% of herbicidal efficacy or phytotoxicity) |  |  |  |  |  |  | 
